Test results: patent US9271978B2 (Zenith Epigenetics Corp., priority 2012, dated 2016)

Legend:
Parameters in all cases: key: Active: Compounds with an IC50 value less than 30 μM were deemed to be active.; Not Active: Compounds with an IC50 value less than 30 μM were deemed to be active
[1] = molecular target: T1, Brd4 bromodomain 1 (BRD4(1)) (Homo sapiens, UniProt O60885); assay: Inhibition of tetra-acetylated histone H4 binding to Brd4 bromodomain 1 (TR-FRET); settings: tetra-acetylated histone H4 peptide, active = IC50 <30 μM
T1 construct: Illustrative results with the first bromodomain of Brd4; made in house; host or cells: E. coli BL21 (DE3)
Method in brief: (§1)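 N-terminally His-tagged bromodomains (200 nM), expressed in E. coli, were incubated with biotinylated tetra-acetylated histone H4 peptide (25-50 nM), Eu-cryptate streptavidin and XL665 anti-His antibody in HEPES pH 7.4 buffer with KF, 0.2% DMSO, 2 h at room temperature. Inhibition read as decreased 665/620 nm TR-FRET; IC50 from dose-response curves.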

hIL-6 mRNA = assay: Inhibition of hIL-6 mRNA transcription in U937 cells; assay type: cell-based, human; settings: LPS stimulation, active = IC50 <30 μM
Method in brief: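 U937 cells differentiated 3 days with 60 ng/mL PMA, pretreated 1 h with compound, then stimulated with 1 ug/mL E. coli LPS for 3 h at 37° C. hIL-6 mRNA quantified by one-step qRT-PCR, Ct normalized to internal control, expressed as fold induction relative to control.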

c-myc = assay: Inhibition of c-myc expression in MV4-11 cells (mRNA, real-time PCR); assay type: cell-based; settings: Human AML MV4-11 cells, 3 h incubation
Description: MV4-11 cells (2.5×10^4 cells) were plated in 96 well U-bottom plates with test compound or DMSO (0.1%), and incubated for 3 h at 37° C. Cells were then harvested by centrifugation, lysed, and mRNA was isolated using the mRNA catcher plus kit (Invitrogen). Reverse transcription of the mRNA and duplex amplification of the c-myc and cyclophilin cDNAs was performed using the RNA Ultrasense kit (Invitrogen) and a ViiA7 real-time PCR machine (Applied Biosystems). IC50 values were determined from a dose response curve.

[2] = tested on: human AML MV-4-11 (CRL-9591) cells; assay: Inhibition of cell proliferation in MV4-11 cells; assay type: cell-based; settings: human AML MV-4-11 cells, 72 h; active = IC50 <30 μM
Method in brief: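 Exponentially growing MV-4-11 cells (5×10^4/well) were treated immediately with two-fold dilutions of compound from 30 μM to 0.2 μM, in triplicate, for 72 h at 37° C, 5% CO2. Viability was measured by MTS absorbance at 490 nm after 3–4 h. Proliferation relative to DMSO after blank correction gave IC50.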

[3] = molecular target: T2, second bromodomain of Brd2 (BRD2(2)) (Homo sapiens, UniProt P25440); assay: Inhibition of tetra-acetylated histone H4 binding to Brd2 bromodomain 2 (TR-FRET); settings: tetra-acetylated histone H4 peptide, active = IC50 <30 μM
T2 construct: made in house; host or cells: E. coli BL21 (DE3)
Method in brief: as §1

T2 sequence (P25440 344-453 limits assumed): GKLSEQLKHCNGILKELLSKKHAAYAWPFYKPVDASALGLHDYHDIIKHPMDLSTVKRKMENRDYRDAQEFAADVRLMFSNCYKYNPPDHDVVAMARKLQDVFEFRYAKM

SMILES | FRET activity (IC50 <30 μM) BRD4(1) [1] | IL-6 activity (IC50 <30 μM) (hIL-6 mRNA) | c-myc activity (IC50 <30 μM) (c-myc) | Cell Proliferation activity (IC50 <30 μM) [2] | FRET activity (IC50 <30 μM) BRD2(2) [3]
Cc1noc(C)c1-c1ccc(=O)n(Cc2ccccc2C#N)n1 [Example 24, 2-((3-(3,5-Dimethylisoxazol-4-yl)-6-oxopyridazin-1(6H)-yl)methyl)benzonitrile] | Active | Not Active | Not Active | Active | Active
Cc1noc(C)c1-c1ccc(=O)n(Cc2ccc(Cl)cc2)n1 [Example 25, 2-(4-Chlorobenzyl)-6-(3,5-dimethylisoxazol-4-yl)pyridazin-3(2H)-one] | Active | Active | Active | Active | Active
Cc1ccccc1Cn1nc(-c2c(C)noc2C)ccc1=O [Example 28] | Active | Active | Active | Active | Active
Cc1ccc(Cn2nc(-c3c(C)noc3C)ccc2=O)cc1 [Example 29, 6-(3,5-Dimethylisoxazol-4-yl)-2-(4-methylbenzyl)pyridazin-3(2H)-one] | Active | Active | Active | Active | Active
Cc1cccc(Cn2nc(-c3c(C)noc3C)ccc2=O)c1 [Example 30, 6-(3,5-Dimethylisoxazol-4-yl)-2-(3-methylbenzyl)pyridazin-3(2H)-one] | Active | Active | Not Active | Active | Active
Cc1noc(C)c1-c1ccc(=O)n(C(C)c2ccccc2C(F)(F)F)n1 (stereo not shown) [Example 34, 6-(3,5-Dimethylisoxazol-4-yl)-2-(1-(2-(trifluoromethyl)phenyl)ethyl)pyridazin-3(2H)-one] | Active | Active | Active | Active | Active
Cc1noc(C)c1-c1ccc(=O)n(Cc2cccc(F)c2)c1 [Example 42, 5-(3,5-Dimethylisoxazol-4-yl)-1-(3-fluorobenzyl)pyridin-2(1H)-one] | Active | Active | Active | Active | Active
Cc1noc(C)c1-c1cc(F)c(=O)n(Cc2ccccc2)c1 [Example 63, 1-Benzyl-5-(3,5-dimethylisoxazol-4-yl)-3-fluoropyridin-2(1H)-one] | Active | Active | Active | Active | Active
Cc1noc(C)c1-c1cc(Cl)c(=O)n(Cc2ccccc2)c1 [Example 64, 1-Benzyl-3-chloro-5-(3,5-dimethylisoxazol-4-yl)pyridin-2(1H)-one] | Active | Active | Active | Active | Active
COc1ccc(Nc2ccc(=O)n(Cc3ccccc3)c2)cc1OC [Example 65, 1-Benzyl-5-((3,4-dimethoxyphenyl)amino)pyridin-2(1H)-one] | Active | Active | Active | Active | Active
Cc1noc(C)c1-c1cc(-c2ccc(F)cc2)c(=O)n(Cc2ccccc2)c1 [Example 70, 1-Benzyl-5-(3,5-dimethylisoxazol-4-yl)-3-(4-fluorophenyl)pyridin-2(1H)-one] | Active | Active | Active | Active | Active
COc1cccc(Cn2cc(-c3c(C)noc3C)ccc2=O)c1 [Example 78, 5-(3,5-Dimethylisoxazol-4-yl)-1-(3-methoxybenzyl)pyridin-2(1H)-one] | Active | Active | Active | Active | Active
Cc1noc(C)c1-c1cc(C)c(=O)n(Cc2ccccc2F)n1 [Example 84, 6-(3,5-Dimethylisoxazol-4-yl)-2-(2-fluorobenzyl)-4-methylpyridazin-3(2H)-one] | Active | Active | Not Active | Not Active | Active
Cc1noc(C)c1-c1ccc(=O)n(Cc2ccc(C(F)(F)F)cc2)n1 [Example 91, 6-(3,5-Dimethylisoxazol-4-yl)-2-(4-(trifluoromethyl)benzyl)pyridazin-3(2H)-one] | Active | Not Active | Not Active | Active | Active
Cc1noc(C)c1-c1ccc(=O)n(Cc2ccccc2F)n1 [Example 93, 6-(3,5-Dimethylisoxazol-4-yl)-2-(2-fluorobenzyl)pyridazin-3(2H)-one] | Active | Not Active | Not Active | Active | Active
Cc1noc(C)c1-c1ccc(=O)n(Cc2ccccc2C(F)(F)F)n1 [Example 94, 6-(3,5-Dimethylisoxazol-4-yl)-2-(2-(trifluoromethyl)benzyl)pyridazin-3(2H)-one] | Active | Not Active | Not Active | Active | Active
Cc1noc(C)c1-c1ccc(=O)n(C(C)c2ccccc2F)n1 (stereo not shown) [Example 95, 6-(3,5-Dimethylisoxazol-4-yl)-2-(1-(2-fluorophenyl)ethyl)pyridazin-3(2H)-one] | Active | Active | Not Active | Not Active | Active
